# US20260183295A1, “METHODS AND COMPOSITIONS FOR TREATING CANCER” (Onconova Therapeutics, Inc., priority 2022, published 2026)
# Key:
# Assay in all cases: CETSA-MS, MDA-MB-231 intact cells
# Assay type in all cases: cell-based
# Conditions in all cases: 2 μM and 20 μM
# STK3 = target: T1, STK3 (Homo sapiens, UniProt Q13188)
# T1 construct: endogenous in cells; host or cells: MDA-MB-231
# Protocol: (§1) TNBC MDA-MB-231 cells were grown at 37° C. in 5% CO2 and suspended in warm media and split into 4 equal volumes. […] Cells were incubated and then pelleted. Following pelleting, the cells were washed, resuspended, and heated in a thermal gradient. Following heating, the samples were flash frozen and lysed in lysis buffer, agitated by vortex, and sonicated prior to centrifugation. The supernatant was collected and denaturation buffer added. Cold acetone was then added to the cell samples, and protein collected by centrifugation. Pellets were then washed twice with cold acetone and the washed pellets prior to labeling.
# (§2) The intact cell protein samples and lysate protein samples were then digested and labeled for mass spectrometry analysis according to the manufacturer's recommended protocols. Digested and labeled protein samples were analyzed by mass spectrometry proteomic analysis and the resulting protein targets were analyzed and plotted.
# RPS6KA3 = target: T2, RPS6KA3 (Homo sapiens, UniProt P51812)
# T2 construct: endogenous in cells; host or cells: MDA-MB-231
# Protocol: as §1, §2
# RAE1 = target: T3, RAE1 (Homo sapiens, UniProt P78406)
# T3 construct: endogenous in cells; host or cells: MDA-MB-231
# Protocol: as §1, §2
# COL2A1 = target: T4, COL2A1 (Homo sapiens, UniProt P02458)
# T4 construct: endogenous in cells; host or cells: MDA-MB-231
# Protocol: as §1, §2
# SGPP1 = target: T5, SGPP1 (Homo sapiens, UniProt Q9BX95)
# T5 construct: endogenous in cells; host or cells: MDA-MB-231
# Protocol: as §1, §2
# CDC5L = target: T6, CDC5L (Homo sapiens, UniProt Q99459)
# T6 construct: endogenous in cells; host or cells: MDA-MB-231
# Protocol: as §1, §2
# LYN = target: T7, LYN (Homo sapiens, UniProt P07948)
# T7 construct: endogenous in cells; host or cells: MDA-MB-231
# Protocol: as §1, §2
# MRC2 = target: T8, MRC2 (Homo sapiens, UniProt Q9UBG0)
# T8 construct: endogenous in cells; host or cells: MDA-MB-231
# Protocol: as §1, §2
# CSNK2A2 = target: T9, CSNK2A2 (Homo sapiens, UniProt P19784)
# T9 construct: 148 targets unique to Compound 1 in MDA-MB-231 intact cells; endogenous in cells; host or cells: MDA-MB-231
# Protocol: as §1, §2
# HSPA13 = target: T10, HSPA13 (Homo sapiens, UniProt P48723)
# T10 construct: endogenous in cells; host or cells: MDA-MB-231
# Protocol: as §1, §2
# PIK3R4 = target: T11, PIK3R4 (Homo sapiens, UniProt Q99570)
# T11 construct: endogenous in cells; host or cells: MDA-MB-231
# Protocol: as §1, §2
# HNRNPA0 = target: T12, HNRNPA0 (Homo sapiens, UniProt Q13151)
# T12 construct: 148 targets unique to Compound 1 in MDA-MB-231 intact cells; endogenous in cells; host or cells: MDA-MB-231
# Protocol: as §1, §2
# PUS7L = target: T13, PUS7L (Homo sapiens, UniProt Q9H0K6)
# T13 construct: endogenous in cells; host or cells: MDA-MB-231
# Protocol: as §1, §2
# ACAA1 = target: T14, ACAA1 (Homo sapiens, UniProt P09110)
# T14 construct: endogenous in cells; host or cells: MDA-MB-231
# Protocol: as §1, §2
# HSPG2 = target: T15, HSPG2 (Homo sapiens, UniProt P98160)
# T15 construct: endogenous in cells; host or cells: MDA-MB-231
# Protocol: as §1, §2
# MLEC = target: T16, MLEC (Homo sapiens, UniProt Q14165)
# T16 construct: endogenous in cells; host or cells: MDA-MB-231
# Protocol: as §1, §2
# GCAT = target: T17, GCAT (Homo sapiens, UniProt O75600)
# T17 construct: 148 targets unique to Compound 1 in MDA-MB-231 intact cells; endogenous in cells; host or cells: MDA-MB-231
# Protocol: as §1, §2
# APLP2 = target: T18, APLP2 (Homo sapiens, UniProt Q06481)
# T18 construct: endogenous in cells; host or cells: MDA-MB-231
# Protocol: as §1, §2
# CRAT = target: T19, CRAT (Homo sapiens, UniProt P43155)
# T19 construct: 148 targets unique to Compound 1 in MDA-MB-231 intact cells; endogenous in cells; host or cells: MDA-MB-231
# Protocol: as §1, §2
# ECE1 = target: T20, ECE1 (Homo sapiens, UniProt P42892)
# T20 construct: 148 targets unique to Compound 1 in MDA-MB-231 intact cells; endogenous in cells; host or cells: MDA-MB-231
# Protocol: as §1, §2
# STK10 = target: T21, STK10 (Homo sapiens, UniProt O94804)
# T21 construct: endogenous in cells; host or cells: MDA-MB-231
# Protocol: as §1, §2
# HNRNPR = target: T22, HNRNPR (Homo sapiens, UniProt O43390)
# T22 construct: endogenous in cells; host or cells: MDA-MB-231
# Protocol: as §1, §2
# COG8 = target: T23, COG8 (Homo sapiens, UniProt Q96MW5)
# T23 construct: endogenous in cells; host or cells: MDA-MB-231
# Protocol: as §1, §2
# FUBP3 = target: T24, FUBP3 (Homo sapiens, UniProt Q96I24)
# T24 construct: 148 targets unique to Compound 1 in MDA-MB-231 intact cells; endogenous in cells; host or cells: MDA-MB-231
# Protocol: as §1, §2
# AAK1 = target: T25, AAK1 (Homo sapiens, UniProt Q2M2I8)
# T25 construct: endogenous in cells; host or cells: MDA-MB-231
# Protocol: as §1, §2
# CLUH = target: T26, CLUH (Homo sapiens, UniProt O75153)
# T26 construct: endogenous in cells; host or cells: MDA-MB-231
# Protocol: as §1, §2
# AXL = target: T27, AXL (Homo sapiens, UniProt P30530)
# T27 construct: endogenous in cells; host or cells: MDA-MB-231
# Protocol: as §1, §2
# MTG1 = target: T28, MTG1 (Homo sapiens, UniProt Q9BT17)
# T28 construct: endogenous in cells; host or cells: MDA-MB-231
# Protocol: as §1, §2
# NAP1L1 = target: T29, NAP1L1 (Homo sapiens, UniProt P55209)
# T29 construct: endogenous in cells; host or cells: MDA-MB-231
# Protocol: as §1, §2
# ANP32B = target: T30, ANP32B (Homo sapiens, UniProt Q92688)
# T30 construct: endogenous in cells; host or cells: MDA-MB-231
# Protocol: as §1, §2
# RBM34 = target: T31, RBM34 (Homo sapiens, UniProt P42696)
# T31 construct: endogenous in cells; host or cells: MDA-MB-231
# Protocol: as §1, §2
# BOD1L1 = target: T32, BOD1L1 (Homo sapiens, UniProt Q8NFC6)
# T32 construct: endogenous in cells; host or cells: MDA-MB-231
# Protocol: as §1, §2
# NPM1 = target: T33, NPM1 (Homo sapiens, UniProt P06748)
# T33 construct: endogenous in cells; host or cells: MDA-MB-231
# Protocol: as §1, §2
# NAPG = target: T34, NAPG (Homo sapiens, UniProt Q99747)
# T34 construct: endogenous in cells; host or cells: MDA-MB-231
# Protocol: as §1, §2
# PIK3C3 = target: T35, PIK3C3 (Homo sapiens, UniProt Q8NEB9)
# T35 construct: endogenous in cells; host or cells: MDA-MB-231
# Protocol: as §1, §2
# TLE5 = target: T36, TLE5 (Homo sapiens, UniProt Q08117)
# T36 construct: endogenous in cells; host or cells: MDA-MB-231
# Protocol: as §1, §2
# T5 sequence (Q9BX95 whole entry): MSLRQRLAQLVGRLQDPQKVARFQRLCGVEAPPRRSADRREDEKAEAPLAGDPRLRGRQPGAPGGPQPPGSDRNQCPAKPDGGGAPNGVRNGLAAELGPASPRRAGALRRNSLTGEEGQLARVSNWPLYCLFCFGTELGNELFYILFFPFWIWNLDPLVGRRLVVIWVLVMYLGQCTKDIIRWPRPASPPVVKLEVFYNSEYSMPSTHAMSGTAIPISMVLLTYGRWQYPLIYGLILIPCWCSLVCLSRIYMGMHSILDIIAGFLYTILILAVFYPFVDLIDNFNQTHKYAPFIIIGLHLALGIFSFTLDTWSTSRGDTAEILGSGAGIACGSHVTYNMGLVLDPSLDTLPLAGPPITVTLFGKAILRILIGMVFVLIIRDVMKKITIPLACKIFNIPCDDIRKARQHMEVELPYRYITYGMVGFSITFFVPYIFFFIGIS
# T10 sequence (P48723 23-471): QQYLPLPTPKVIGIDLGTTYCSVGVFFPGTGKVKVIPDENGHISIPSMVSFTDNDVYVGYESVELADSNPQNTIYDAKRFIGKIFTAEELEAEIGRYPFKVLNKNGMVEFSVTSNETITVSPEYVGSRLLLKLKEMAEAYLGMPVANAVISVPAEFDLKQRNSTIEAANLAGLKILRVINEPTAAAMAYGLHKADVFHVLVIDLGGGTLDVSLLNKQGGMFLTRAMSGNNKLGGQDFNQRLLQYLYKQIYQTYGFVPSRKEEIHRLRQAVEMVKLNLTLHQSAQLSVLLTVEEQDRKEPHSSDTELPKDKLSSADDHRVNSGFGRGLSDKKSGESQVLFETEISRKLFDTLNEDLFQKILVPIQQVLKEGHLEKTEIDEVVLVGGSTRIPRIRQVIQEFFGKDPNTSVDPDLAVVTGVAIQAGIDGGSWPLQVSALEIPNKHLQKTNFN
# T4 sequence (P02458 182-1487): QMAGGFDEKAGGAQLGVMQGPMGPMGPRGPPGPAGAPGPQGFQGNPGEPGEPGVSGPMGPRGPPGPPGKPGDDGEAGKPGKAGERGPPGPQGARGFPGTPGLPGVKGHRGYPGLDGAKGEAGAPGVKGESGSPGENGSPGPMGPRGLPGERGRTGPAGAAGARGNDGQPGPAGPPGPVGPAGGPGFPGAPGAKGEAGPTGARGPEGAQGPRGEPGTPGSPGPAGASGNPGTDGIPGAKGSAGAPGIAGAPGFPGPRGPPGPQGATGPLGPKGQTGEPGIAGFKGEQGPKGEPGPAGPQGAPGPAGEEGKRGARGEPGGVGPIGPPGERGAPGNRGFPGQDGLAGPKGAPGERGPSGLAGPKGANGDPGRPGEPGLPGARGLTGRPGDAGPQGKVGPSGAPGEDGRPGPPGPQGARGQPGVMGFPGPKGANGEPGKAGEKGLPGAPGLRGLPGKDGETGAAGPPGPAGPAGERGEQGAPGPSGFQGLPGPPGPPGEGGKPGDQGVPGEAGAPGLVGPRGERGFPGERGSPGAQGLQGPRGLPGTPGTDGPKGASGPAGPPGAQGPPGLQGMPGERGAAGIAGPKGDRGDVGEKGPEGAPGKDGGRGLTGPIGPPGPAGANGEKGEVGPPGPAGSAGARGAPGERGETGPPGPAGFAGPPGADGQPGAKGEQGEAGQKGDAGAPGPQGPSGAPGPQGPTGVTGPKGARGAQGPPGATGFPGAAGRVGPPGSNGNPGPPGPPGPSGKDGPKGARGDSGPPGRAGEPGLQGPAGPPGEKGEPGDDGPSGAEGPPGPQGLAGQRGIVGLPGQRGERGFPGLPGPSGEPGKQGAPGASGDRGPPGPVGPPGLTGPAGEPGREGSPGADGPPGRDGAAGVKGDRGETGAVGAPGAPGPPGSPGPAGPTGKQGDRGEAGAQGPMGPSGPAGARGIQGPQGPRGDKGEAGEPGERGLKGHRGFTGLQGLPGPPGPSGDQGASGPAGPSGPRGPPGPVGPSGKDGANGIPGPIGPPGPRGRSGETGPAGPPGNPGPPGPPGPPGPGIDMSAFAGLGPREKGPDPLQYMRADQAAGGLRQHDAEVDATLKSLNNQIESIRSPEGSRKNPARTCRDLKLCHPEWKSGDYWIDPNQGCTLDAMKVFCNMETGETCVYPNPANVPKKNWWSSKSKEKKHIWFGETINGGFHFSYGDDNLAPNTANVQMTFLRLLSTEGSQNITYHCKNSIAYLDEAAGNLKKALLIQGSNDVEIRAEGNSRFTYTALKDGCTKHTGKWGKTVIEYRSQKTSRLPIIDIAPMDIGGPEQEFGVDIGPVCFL
# T31 sequence (P42696 whole entry): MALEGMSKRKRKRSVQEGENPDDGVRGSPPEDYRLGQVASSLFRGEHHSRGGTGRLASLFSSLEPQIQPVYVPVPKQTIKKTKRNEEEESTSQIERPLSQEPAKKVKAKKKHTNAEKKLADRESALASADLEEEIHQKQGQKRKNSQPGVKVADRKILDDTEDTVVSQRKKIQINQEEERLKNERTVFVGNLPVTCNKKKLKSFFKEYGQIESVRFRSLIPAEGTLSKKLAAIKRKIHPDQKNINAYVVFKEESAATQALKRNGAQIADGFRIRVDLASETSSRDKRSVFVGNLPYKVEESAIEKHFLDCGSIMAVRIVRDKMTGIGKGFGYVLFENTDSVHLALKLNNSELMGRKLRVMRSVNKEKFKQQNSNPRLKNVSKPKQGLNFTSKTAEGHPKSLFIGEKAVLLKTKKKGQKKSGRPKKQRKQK
# T13 sequence (Q9H0K6 whole entry): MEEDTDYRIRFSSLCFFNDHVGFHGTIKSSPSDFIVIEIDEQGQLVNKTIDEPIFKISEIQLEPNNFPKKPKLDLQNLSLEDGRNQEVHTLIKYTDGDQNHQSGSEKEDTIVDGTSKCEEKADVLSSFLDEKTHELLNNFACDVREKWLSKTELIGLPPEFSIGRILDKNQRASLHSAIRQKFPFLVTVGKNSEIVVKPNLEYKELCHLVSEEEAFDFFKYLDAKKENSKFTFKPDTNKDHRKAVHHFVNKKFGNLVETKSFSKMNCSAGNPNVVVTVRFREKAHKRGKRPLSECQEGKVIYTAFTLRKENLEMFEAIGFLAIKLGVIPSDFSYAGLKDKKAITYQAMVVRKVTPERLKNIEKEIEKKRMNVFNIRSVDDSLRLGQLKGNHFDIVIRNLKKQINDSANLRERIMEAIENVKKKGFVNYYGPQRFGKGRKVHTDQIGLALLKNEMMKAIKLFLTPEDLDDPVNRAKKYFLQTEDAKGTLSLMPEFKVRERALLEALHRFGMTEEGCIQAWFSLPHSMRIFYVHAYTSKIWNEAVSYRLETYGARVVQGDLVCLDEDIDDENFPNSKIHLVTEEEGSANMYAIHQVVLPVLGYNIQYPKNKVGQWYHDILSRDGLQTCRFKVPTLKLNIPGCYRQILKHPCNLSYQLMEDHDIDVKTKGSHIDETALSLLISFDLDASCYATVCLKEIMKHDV
# T30 sequence (Q92688 whole entry): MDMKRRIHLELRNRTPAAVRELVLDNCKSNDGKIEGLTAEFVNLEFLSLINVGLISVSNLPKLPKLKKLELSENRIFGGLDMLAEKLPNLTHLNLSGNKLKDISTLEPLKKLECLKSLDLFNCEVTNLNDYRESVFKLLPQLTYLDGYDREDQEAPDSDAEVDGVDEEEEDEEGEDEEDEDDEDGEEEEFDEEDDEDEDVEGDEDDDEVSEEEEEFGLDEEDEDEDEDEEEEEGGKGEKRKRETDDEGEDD
# T36 sequence (Q08117 whole entry): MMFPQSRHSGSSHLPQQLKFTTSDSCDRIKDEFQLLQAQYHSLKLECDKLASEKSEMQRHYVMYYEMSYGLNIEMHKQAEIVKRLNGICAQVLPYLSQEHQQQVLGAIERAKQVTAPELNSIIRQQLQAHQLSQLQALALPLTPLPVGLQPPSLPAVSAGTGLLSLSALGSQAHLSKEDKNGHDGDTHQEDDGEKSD
# T34 sequence (Q99747 whole entry): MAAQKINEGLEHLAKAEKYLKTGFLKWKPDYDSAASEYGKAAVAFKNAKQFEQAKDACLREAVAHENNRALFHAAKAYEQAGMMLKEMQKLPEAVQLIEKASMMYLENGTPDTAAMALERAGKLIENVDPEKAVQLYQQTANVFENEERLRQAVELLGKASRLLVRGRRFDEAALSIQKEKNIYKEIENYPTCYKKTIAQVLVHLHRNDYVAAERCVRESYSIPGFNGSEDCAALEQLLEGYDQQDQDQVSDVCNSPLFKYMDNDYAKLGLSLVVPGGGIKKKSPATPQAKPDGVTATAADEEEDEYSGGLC
# T3 sequence (P78406 whole entry): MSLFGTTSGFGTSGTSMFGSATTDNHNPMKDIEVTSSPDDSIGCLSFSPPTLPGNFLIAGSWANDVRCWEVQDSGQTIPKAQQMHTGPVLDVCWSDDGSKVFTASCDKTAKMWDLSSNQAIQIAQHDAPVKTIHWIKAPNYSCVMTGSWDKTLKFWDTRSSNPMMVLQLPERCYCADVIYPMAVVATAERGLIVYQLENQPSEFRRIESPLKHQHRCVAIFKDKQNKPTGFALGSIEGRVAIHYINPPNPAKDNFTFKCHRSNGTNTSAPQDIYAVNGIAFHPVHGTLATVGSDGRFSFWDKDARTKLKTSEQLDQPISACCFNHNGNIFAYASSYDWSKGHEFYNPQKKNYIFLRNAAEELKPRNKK
# T9 sequence (P19784 whole entry): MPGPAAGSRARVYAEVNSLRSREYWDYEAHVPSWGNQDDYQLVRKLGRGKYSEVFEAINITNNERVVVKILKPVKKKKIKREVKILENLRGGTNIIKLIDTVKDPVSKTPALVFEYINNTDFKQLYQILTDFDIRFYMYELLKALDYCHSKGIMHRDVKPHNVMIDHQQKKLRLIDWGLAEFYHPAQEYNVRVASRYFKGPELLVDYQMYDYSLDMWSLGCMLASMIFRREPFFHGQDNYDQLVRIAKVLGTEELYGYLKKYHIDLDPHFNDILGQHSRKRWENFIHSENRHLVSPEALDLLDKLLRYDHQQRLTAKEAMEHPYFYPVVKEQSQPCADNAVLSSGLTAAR
structure (smiles),measurement,setting,value
"CN1CCN(c2ccc(Nc3ncc4cc(C#N)c(=O)n(C5CCCC5)c4n3)cc2)CC1 [Compound 1, 8-cyclopentyl-2-((4-(4-methylpiperazin-1-yl)phenyl)amino)-7-oxo-7,8-dihydropyrido[2,3-d]pyrimidine-6-carbonitrile]",Group (CETSA-MS thermal shift),STK3,Destabilization
same,Group (CETSA-MS thermal shift),RPS6KA3,Destabilization
same,Group (CETSA-MS thermal shift),RAE1,Stabilization
same,Group (CETSA-MS thermal shift),COL2A1,Stabilization
same,Group (CETSA-MS thermal shift),SGPP1,Stabilization
same,Group (CETSA-MS thermal shift),CDC5L,Stabilization
same,Group (CETSA-MS thermal shift),LYN,Destabilization
same,Group (CETSA-MS thermal shift),MRC2,Stabilization
same,Group (CETSA-MS thermal shift),CSNK2A2,Stabilization
same,Group (CETSA-MS thermal shift),HSPA13,Stabilization
same,Group (CETSA-MS thermal shift),PIK3R4,Stabilization
same,Group (CETSA-MS thermal shift),HNRNPA0,Stabilization
same,Group (CETSA-MS thermal shift),PUS7L,Destabilization
same,Group (CETSA-MS thermal shift),ACAA1,Destabilization
same,Group (CETSA-MS thermal shift),HSPG2,Stabilization
same,Group (CETSA-MS thermal shift),MLEC,Stabilization
same,Group (CETSA-MS thermal shift),GCAT,Stabilization
same,Group (CETSA-MS thermal shift),APLP2,Stabilization
same,Group (CETSA-MS thermal shift),CRAT,Stabilization
same,Group (CETSA-MS thermal shift),ECE1,Stabilization
same,Group (CETSA-MS thermal shift),STK10,Stabilization
same,Group (CETSA-MS thermal shift),HNRNPR,Stabilization
same,Group (CETSA-MS thermal shift),COG8,Destabilization
same,Group (CETSA-MS thermal shift),FUBP3,Stabilization
same,Group (CETSA-MS thermal shift),AAK1,Stabilization
same,Group (CETSA-MS thermal shift),CLUH,Stabilization
same,Group (CETSA-MS thermal shift),AXL,Stabilization
same,Group (CETSA-MS thermal shift),MTG1,Stabilization
same,Group (CETSA-MS thermal shift),NAP1L1,Stabilization
same,Group (CETSA-MS thermal shift),ANP32B,Destabilization
same,Group (CETSA-MS thermal shift),RBM34,Stabilization
same,Group (CETSA-MS thermal shift),BOD1L1,Destabilization
same,Group (CETSA-MS thermal shift),NPM1,Destabilization
same,Group (CETSA-MS thermal shift),NAPG,Stabilization
same,Group (CETSA-MS thermal shift),PIK3C3,Stabilization
same,Group (CETSA-MS thermal shift),TLE5,Destabilization
